Measurements as given in US10654837B2, “Sulphamoylaryl derivatives and use thereof as medicaments for the treatment of liver fibrosis” (Janssen Pharmaceutica NV, priority 2017, dated 2020).

biological target: T1, 5HTR2B (Homo sapiens, UniProt P41595); assay: 5HTR2B antagonist activity, calcium mobilization assay in human Maverick/293 cells (serotonin as agonist); type: cell-based; conditions: intracellular calcium, emission 525 nm, read-out: Ca assay IC50
T1 construct: host or cells: human Maverick/293 cells
Outline: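 Calcium mobilization read over 80 s at ex 485/em 525 nm after serotonin addition. Before that, 2 h serum-free starvation, 50 min dye loading at 37 °C, and 15-30 min antagonist exposure. IC50 from sigmoidal fit of peak % inhibition.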

T1 sequence (P41595 whole entry): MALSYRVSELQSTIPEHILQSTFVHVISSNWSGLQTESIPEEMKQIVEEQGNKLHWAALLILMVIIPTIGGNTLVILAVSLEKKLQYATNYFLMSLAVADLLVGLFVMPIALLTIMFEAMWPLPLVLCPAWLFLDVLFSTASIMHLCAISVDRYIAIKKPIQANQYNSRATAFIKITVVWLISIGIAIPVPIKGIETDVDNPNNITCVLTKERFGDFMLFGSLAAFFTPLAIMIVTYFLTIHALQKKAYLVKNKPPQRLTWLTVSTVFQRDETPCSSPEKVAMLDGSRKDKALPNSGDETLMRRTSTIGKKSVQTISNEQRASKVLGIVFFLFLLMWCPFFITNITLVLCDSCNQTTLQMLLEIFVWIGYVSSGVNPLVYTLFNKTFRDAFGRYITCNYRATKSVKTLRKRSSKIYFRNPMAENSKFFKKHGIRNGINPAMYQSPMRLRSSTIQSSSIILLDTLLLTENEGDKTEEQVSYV

IC50	Compound
1.7 nM	COC[C@H](C)NS(=O)(=O)c1ccc(OC)c(C(=O)Nc2ccc(F)cc2)c1 (single isomer, unassigned) [Compound 40a, (S*)—N-(4-Fluorophenyl)-2-methoxy-5-(N-(1-methoxypropan-2-yl)sulfamoyl) benzamide]
3.4 nM	COCCOC[C@H](C)NS(=O)(=O)c1ccc(OC)c(C(=O)Nc2ccc(F)cc2F)c1 [Compound 147a, (S)—N-(2,4-Difluorophenyl)-2-methoxy-5-(N-(1-(2-methoxyethoxy)propan-2-yl)sulfamoyl)benzamide]
0.8 nM	COc1ccc(S(=O)(=O)N[C@H]2CCOC2)cc1C(=O)Nc1cc(F)c(F)cc1F [Compound 74, (S)-2-Methoxy-5-(N-(tetrahydrofuran-3-yl)sulfamoyl)-N-(2,4,5-trifluorophenyl) benzamide]
435 nM	COc1ccc(S(=O)(=O)N[C@H]2CCOC2)cc1C(=O)Nc1cccc(C#N)c1 [Compound 102, (S)—N-(3-cyanophenyl)-2-methoxy-5-(N-(tetrahydrofuran-3-yl)sulfamoyl) benzamide]
2.4 nM	COc1ccc(S(=O)(=O)NCC(O)C(F)(F)F)cc1C(=O)Nc1ccc(F)cc1 (single isomer, unassigned) [Compound 44a, (S*)—N-(4-Fluorophenyl)-2-methoxy-5-(N-(3,3,3-trifluoro-2-hydroxypropyl)sulfamoyl)benzamide]
1.1 nM	COc1ccc(S(=O)(=O)N[C@H]2CCOC2)cc1C(=O)Nc1ccccc1C#N [Compound 164]
29 nM	COc1ccc(S(=O)(=O)N[C@H]2CCOC2)cc1C(=O)Nc1cc(F)cc(C#N)c1 [Compound 87, (S)—N-(3-Cyano-5-fluorophenyl)-2-methoxy-5-(N-(tetrahydrofuran-3-yl)sulfamoyl)benzamide]
2.5 nM	COc1ccc(S(=O)(=O)N[C@H]2C[C@H](O)C2)cc1C(=O)Nc1ccc(F)cc1F [Compound 145a, N-(2,4-difluorophenyl)-5-(N-((trans)-3-hydroxycyclobutyl)sulfamoyl)-2-methoxybenzamide]
3.9 nM	COc1ccc(S(=O)(=O)N[C@H]2C[C@H](O)C2)cc1C(=O)Nc1ccc(F)c(C(F)F)n1 [Compound 174a, N-(6-(Difluoromethyl)-5-fluoropyridin-2-yl)-5-(N-((trans)-3-hydroxycyclobutyl)sulfamoyl)-2-methoxybenzamide]
3.2 nM	[2H]C([2H])([2H])Oc1ccc(S(=O)(=O)N[C@H]2CCOC2)cc1C(=O)Nc1ccc(F)cn1 [Compound 193, (S)—N-(5-fluoropyridin-2-yl)-2-(methoxy-d3)-5-(N-(tetrahydrofuran-3-yl)sulfamoyl)benzamide]
0.8 nM	COc1ccc(S(=O)(=O)N[C@H]2C[C@@H](O)C2)cc1C(=O)Nc1ccc(F)c(C)c1F [Compound 173, N-(2,4-Difluoro-3-methylphenyl)-5-(N-((cis)-3-hydroxycyclobutyl)sulfamoyl)-2-methoxybenzamide]
10 nM	COc1ccc(S(=O)(=O)N[C@H]2CCOC2)cc1C(=O)Nc1cccc2c1cnn2C [Compound 110, (S)-2-Methoxy-N-(1-methyl-1H-indazol-4-yl)-5-(N-(tetrahydrofuran-3-yl)sulfamoyl)benzamide]
64 nM	COc1ccc(S(=O)(=O)N[C@H]2CCOC2)cc1C(=O)Nc1ncc(F)cn1 [Compound 117, (S)—N-(5-Fluoropyrimidin-2-yl)-2-methoxy-5-(N-(tetrahydrofuran-3-yl)sulfamoyl)benzamide]
186 nM	COc1ccc(S(=O)(=O)N[C@H]2CCOC2)cc1C(=O)Nc1cc(F)c(F)c(F)c1 [Compound 97, (S)-2-Methoxy-5-(N-(tetrahydrofuran-3-yl)sulfamoyl)-N-(3,4,5-trifluorophenyl) benzamide]
3.6 nM	COc1ccc(S(=O)(=O)NC2COC2)cc1C(=O)Nc1ccc(F)c(C(F)F)c1 [Compound 39, N-(3-(Difluoromethyl)-4-fluorophenyl)-2-methoxy-5-(N-(oxetan-3-yl)sulfamoyl)benzamide]
5.3 nM	Cc1nc(NC(=O)c2cc(S(=O)(=O)N[C@H]3CCOC3)ccc2OC(C)C)ccc1F [Compound 197, (S)—N-(5-fluoro-6-methylpyridin-2-yl)-2-isopropoxy-5-(N-(tetrahydrofuran-3-yl)sulfamoyl)benzamide]
32 nM	COc1ccc(S(=O)(=O)N[C@H]2CCOC2)cc1C(=O)Nc1c(Cl)cccc1Cl [Compound 81, (S)—N-(2,6-Dichlorophenyl)-2-methoxy-5-(N-(tetrahydrofuran-3-yl)sulfamoyl) benzamide]
1.9 nM	COc1ccc(S(=O)(=O)N[C@H]2C[C@@H](O)C2)cc1C(=O)Nc1ccc(F)c(C)c1 [Compound 6b, N-(4-Fluoro-3-methylphenyl)-5-(N-((cis)-3-hydroxycyclobutyl)sulfamoyl)-2-methoxybenzamide]
1.1 nM	[2H]C([2H])([2H])Oc1ccc(S(=O)(=O)N[C@H]2CCOC2)cc1C(=O)Nc1ccc(F)c(C)n1 [Compound 194, (S)—N-(5-fluoro-6-methylpyridin-2-yl)-2-(methoxy-d3)-5-(N-(tetrahydrofuran-3-yl)sulfamoyl)benzamide]

IC50	Compound
0.7 nM	COc1ccc(S(=O)(=O)N[C@H]2CCOC2)cc1C(=O)Nc1cccc(C)c1 [Compound 159]
2.9 nM	COc1ccc(S(=O)(=O)N[C@H]2CCOC2)cc1C(=O)Nc1ccc(F)c(Cl)c1 [Compound 112, (S)—N-(3-Chloro-4-fluorophenyl)-2-methoxy-5-(N-(tetrahydrofuran-3-yl)sulfamoyl)benzamide]
1.7 nM	COc1ccc(S(=O)(=O)N[C@H]2CCOC2)cc1C(=O)Nc1cccc(F)c1Cl [Compound 3, (S)—N-(2-Chloro-3-fluorophenyl)-2-methoxy-5-(N-(tetrahydrofuran-3-yl)sulfamoyl) benzamide]
18 nM	COc1ccc(S(=O)(=O)N[C@H]2C[C@H](O)C2)cc1C(=O)Nc1ccc(F)c(C)c1 [Compound 6a, N-(4-Fluoro-3-methylphenyl)-5-(N-((trans)-3-hydroxycyclobutyl)sulfamoyl)-2-methoxybenzamide]
7.2 nM	COc1ccc(S(=O)(=O)NC2COC2)cc1C(=O)Nc1ccc(F)cc1 [Compound 43, N-(4-Fluorophenyl)-2-methoxy-5-(N-(oxetan-3-yl)sulfamoyl)benzamide]
9.5 nM	COC[C@@H](C)NS(=O)(=O)c1ccc(OC)c(C(=O)Nc2ccc(F)cc2)c1 (single isomer, unassigned) [Compound 40b, (R*)—N-(4-Fluorophenyl)-2-methoxy-5-(N-(1-methoxypropan-2-yl)sulfamoyl) benzamide]
3.1 nM	COc1ccc(S(=O)(=O)N[C@H]2CCOC2)cc1C(=O)Nc1c(F)cc(F)cc1F [Compound 76, (S)-2-Methoxy-5-(N-(tetrahydrofuran-3-yl)sulfamoyl)-N-(2,4,6-trifluorophenyl) benzamide]
8.4 nM	COc1ccc(S(=O)(=O)N[C@H]2CCOC2)cc1C(=O)Nc1ccccc1C(F)(F)F [Compound 149, (S)-2-Methoxy-5-(N-(tetrahydrofuran-3-yl)sulfamoyl)-N-(2-(trifluoromethyl)phenyl)benzamide]
17.1 nM	COc1ccc(S(=O)(=O)N[C@H]2C[C@H](O)C2)cc1C(=O)Nc1cc(C)ccc1Cl [Compound 137a, N-(2-chloro-5-methylphenyl)-5-(N-((trans)-3-hydroxycyclobutyl)sulfamoyl)-2-methoxybenzamide]
4.5 nM	COc1ccc(S(=O)(=O)N[C@H](C)CO)cc1C(=O)Nc1ccc(F)cc1 [Compound 52b, (R)—N-(4-fluorophenyl)-5-(N-(1-hydroxypropan-2-yl)sulfamoyl)-2-methoxybenzamide]
65 nM	COc1ccc(S(=O)(=O)N[C@H]2CCOC2)cc1C(=O)Nc1nccs1 [Compound 64, (S)-2-Methoxy-5-(N-(tetrahydrofuran-3-yl)sulfamoyl)-N-(thiazol-2-yl) benzamide]
1.1 nM	COc1ccc(S(=O)(=O)N[C@H]2CCOC2)cc1C(=O)Nc1nc(C)cs1 [Compound 82, (S)-2-methoxy-N-(4-methylthiazol-2-yl)-5-(N-(tetrahydrofuran-3-yl)sulfamoyl) benzamide]
1.3 nM	COc1ccc(S(=O)(=O)N[C@H]2CCOC2)cc1C(=O)Nc1ccc(F)cc1C [Compound 131, (S)—N-(4-Fluoro-2-methylphenyl)-2-methoxy-5-(N-(tetrahydrofuran-3-yl)sulfamoyl)benzamide]
7.6 nM	COc1ccc(S(=O)(=O)NC2(C(F)(F)F)CC2)cc1C(=O)Nc1ccc(F)cc1 [Compound 50, N-(4-Fluorophenyl)-2-methoxy-5-(N-(1-(trifluoromethyl)cyclopropyl)sulfamoyl)benzamide]
1.5 nM	COc1ccc(S(=O)(=O)N[C@H](C)C(N)=O)cc1C(=O)Nc1ccc(F)cc1 [Compound 46a, (R)-5-(N-(1-Amino-1-oxopropan-2-yl)sulfamoyl)-N-(4-fluorophenyl)-2-methoxybenzamide]
159 nM	COc1ccc(S(=O)(=O)N[C@H]2C[C@H](O)C2)cc1C(=O)Nc1c(C)cccc1Cl [Compound 138a, N-(2-Chloro-6-methylphenyl)-5-(N-((trans)-3-hydroxycyclobutyl)sulfamoyl)-2-methoxybenzamide]
0.6 nM	COc1ccc(S(=O)(=O)N[C@H]2CC[C@@H](O)CC2)cc1C(=O)Nc1ccc(F)c(C(F)F)c1 [Compound 38, N-(3-(Difluoromethyl)-4-fluorophenyl)-5-(N-((cis)-4-hydroxycyclohexyl)sulfamoyl)-2-methoxybenzamide]
0.8 nM	COc1ccc(S(=O)(=O)N[C@H]2CCNC2)cc1C(=O)Nc1ccc(Cl)cc1F [Compound 185, (S)—N-(4-chloro-2-fluorophenyl)-2-methoxy-5-(N-(pyrrolidin-3-yl)sulfamoyl) benzamide]
8.4 nM	COc1ccc(S(=O)(=O)N[C@H]2CCOC2)cc1C(=O)Nc1c(F)cccc1Cl [Compound 103, (S)—N-(2-Chloro-6-fluorophenyl)-2-methoxy-5-(N-(tetrahydrofuran-3-yl)sulfamoyl)benzamide]
